In PMC3914206:

Legend:
[1] = biological target: T1, panel of 442 kinases (Homo sapiens, UniProt Q9Y6E0); format: binding; conditions: Compound Concentration 10 µM
T1 construct: purchased KINOMEscan
Excerpt: (§1) We assessed the selectivity of members of this scaffold using the KINOMEscan methodology across a near comprehensive panel of 442 kinases [[18,27]].

[2] = biological target: T2, panel of 442 kinases (Homo sapiens, UniProt P42681); format: binding; conditions: kinase TXK; compound concentration 10 µM
T2 construct: purchased KINOMEscan
T2 sequence (P42681 1-527): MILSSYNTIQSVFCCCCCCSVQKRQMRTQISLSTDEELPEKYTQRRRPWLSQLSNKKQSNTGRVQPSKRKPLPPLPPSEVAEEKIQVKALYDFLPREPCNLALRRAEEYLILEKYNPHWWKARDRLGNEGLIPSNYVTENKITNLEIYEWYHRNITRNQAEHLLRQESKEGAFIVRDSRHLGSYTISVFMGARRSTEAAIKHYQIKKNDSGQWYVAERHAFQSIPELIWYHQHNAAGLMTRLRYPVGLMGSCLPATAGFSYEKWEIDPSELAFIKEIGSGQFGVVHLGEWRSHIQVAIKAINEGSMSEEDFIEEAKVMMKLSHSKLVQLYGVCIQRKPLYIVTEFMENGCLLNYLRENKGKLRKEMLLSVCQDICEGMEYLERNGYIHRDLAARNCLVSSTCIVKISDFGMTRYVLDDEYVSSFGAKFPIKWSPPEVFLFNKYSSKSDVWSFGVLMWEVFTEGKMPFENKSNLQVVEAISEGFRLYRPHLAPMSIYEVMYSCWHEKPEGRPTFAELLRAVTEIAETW
Excerpt: as §1

T1 sequence (Q9Y6E0 whole entry): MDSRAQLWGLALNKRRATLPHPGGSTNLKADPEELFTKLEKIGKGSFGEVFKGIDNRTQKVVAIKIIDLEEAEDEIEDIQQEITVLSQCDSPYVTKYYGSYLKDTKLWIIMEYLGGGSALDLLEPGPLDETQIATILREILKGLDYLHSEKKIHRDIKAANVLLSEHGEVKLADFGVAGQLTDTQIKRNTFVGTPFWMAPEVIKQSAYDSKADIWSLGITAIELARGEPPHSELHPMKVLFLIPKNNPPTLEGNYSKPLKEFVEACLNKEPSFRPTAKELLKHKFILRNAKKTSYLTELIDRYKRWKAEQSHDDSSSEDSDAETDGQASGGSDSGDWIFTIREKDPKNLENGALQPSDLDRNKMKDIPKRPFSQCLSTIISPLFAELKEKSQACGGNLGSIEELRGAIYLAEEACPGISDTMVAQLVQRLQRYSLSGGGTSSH

| Structure (SMILES) | KINOMEscan: MST3 [1] | % Ctrl, TXK [2] [% Ctrl] |
| --- | --- | --- |
| COc1cc(C(=O)N2CCC(N3CCN(C)CC3)CC2)ccc1Nc1ncc2c(n1)N1CCc3cccc(c31)C(=O)N2C [Compound 24] | 73 | 93 |
| CCOc1cc(C(=O)N2CCC(N3CCN(C)CC3)CC2)ccc1Nc1ncc2c(n1)N(C1CCCC1)c1ccccc1C(=O)N2C [Compound 26] | 100 | 100 |
| COc1cc(C(=O)N2CCC(N3CCN(C)CC3)CC2)ccc1Nc1ncc2c(n1)N(C1CCCC1)c1ccccc1C(=O)N2C [Compound 25, 11-cyclopentyl-2-((2-methoxy-4-(4-(4-methylpiperazin-1-yl)piperidine-1-carbonyl)phenyl)amino)-5-methyl-5H-benzo[e]pyrimido[5,4-b][1,4]diazepin-6(11H)-one] | 88 | 95 |
| COc1cc(C(=O)N2CCC(N3CCN(C)CC3)CC2)ccc1Nc1ncc2c(n1)N(C)c1ccccc1C(=O)N2C [15 (LRRK2-IN-1)] | 87 | 91 |
